Where two headings read alike, the source gives them in different places.
Legend:
Assay type in all cases: cell-based
S. aureus ATCC 29213 = experiment: MIC by NCCLS microdilution, antibacterial agents with and without EPI; conditions: for MIC: Staphylococcus aureus; for MIC in the presence of 4X MEC of EPI, VX-710: VX-710 100 μg/ml; for MIC in the presence of 4X MEC of EPI, VX-853: VX-853 6.25 μg/ml; for MIC in the presence of 4X MEC of EPI, reserpine: reserpine 25 μg/ml
Description: 3% sterile laked horse blood (Quad Five, Ryegate, Mont.) was added to assays for E. faecalis and S. Pneumoniae. A final concentration of 1% DMSO was present in all assays. […]
A-106 and C-9 were tested at their respective MECs in combination with a variety of different classes of antibiotics against S. aureus ATCC 29213 (Table 2).

[1] = tested on: E. faecalis clinical isolates; experiment: MIC90 studies: fluoroquinolone susceptibility of clinical isolate panel with EPI; conditions: Enterococcus faecalis
Description: (§1) Susceptibility studies with large panels of resistant clinical isolates were performed at Focus Technologies, Herndon, Va. according to NCCLS protocols (National Committee for Clinical Laboratory Standards, supra).
(§2) To be useful in combination therapy, an EPI needs to substantially reduce the MIC of an antibiotic to within the range of clinical susceptibility. Because many different resistance mechanisms are often present in clinical isolates, including the likelihood of multiple target-based mutations in addition to efflux mutations, the barrier to antibiotic efficacy is much greater. […] Oxacillin and vancomycin MICs were also determined to identify which isolates were methicillin-resistant (S. aureus) and vancomycin-resistant (E. faecalis).

[2] = tested on: S. aureus clinical isolates; experiment: as above; conditions: Staphylococcus aureus
Description: as §1, §2

S. aureus SA-8325-4 = experiment: MIC of fluoroquinolones with and without EPI; conditions: Staphylococcus aureus, SA83254, read-out: MIC of antibacterial agent, EPI none
From the text: (§3) A variety of strains may be used in these experiments, including, but not limited to, S. aureus ATCC 29213, E. faecalis ATCC 29212, and S. pneumoniae, S. aureus strains SA-1199, SA-1199B, SA-8325-4, and SA-K2068. S. aureus ATCC 29213, E. faecalis ATCC 29212, and S. pneumoniae ATCC 10015 were obtained from the American Type Culture Collection (Manassas, Va.). S. aureus strains SA-1199 (clinical isolate, susceptible), SA-1199B (SA-1199, NorA overproducing, also has A116E GrlA mutation), SA-8325-4 (NCTC 8325 cured of prophages), SA-K2068 (SA-8325-4, non-NorA multidrug efflux pump overproducing mutation) were obtained from Glenn Kaatz (Kaatz et al., “Identification and characterization of a novel efflux-related multidrug resistance phenotype in Staphylococcus aureus”, J. Antimicrob. Chemother. 50:833-838 (2002); 1993; Kaatz et al., “Phenothiazines and thioxanthenes inhibit multidrug efflux pump activity in Staphylococcus aureus”, Antimicrob. Agents Chemother. 47:719-726, Kaatz et al., “Efflux-mediated fluoroquinolone resistance in Staphylococcus aureus. Antimicrob. Agents Chemother.”, 37:1086-1094, 1993)).
(§4) 3% sterile laked horse blood (Quad Five, Ryegate, Mont.) was added to assays for E. faecalis and S. Pneumoniae. A final concentration of 1% DMSO was present in all assays.

[3] = tested on: S. aureus SA-1199 (clinical isolate, susceptible); experiment: MIC of fluoroquinolones with and without EPI
From the text: as §3, §4

[4] = tested on: S. aureus SA-K2068 (non-NorA multidrug efflux pump overproducing); experiment: microbe, parasite or virus in culture; conditions: S. aureus K2068 (non-NorA MDR pump overproducer); no EPI
From the text: as §3, §4
(§5) Recent more hydrophobic fluoroquinolones such as gatifloxacin and moxifloxacin are less well recognized by NorA; however, recently one other pump in S. aureus has been described which also recognizes hydrophobic fluoroquinolones (Kaatz et al. 2002, supra). To investigate the potential of A-106 and C-9 to block the efflux of several fluoroquinolones in cells with constituitively over-expressed efflux pumps, we used S. aureus strains SA-1199B and K2068 (Table 3). […] Kaatz et al., “Phenothiazines and thioxanthenes inhibit multidrug efflux pump activity in Staphylococcus aureus”, Antimicrob. Agents Chemother. 47:719-726 (2003).

[5] = tested on: S. aureus SA-1199B (NorA overproducing); experiment: MIC of fluoroquinolones with and without EPI; conditions: S. aureus SA-1199B (NorA overproducer, GrlA A116E); no EPI
From the text: as §3, §4, §5

[6] = ATCC29213, antibacterial agent alone, read-out: MIC, No EPI

## CO/N=C(\C(=O)N[C@@H]1C(=O)N2C(C(=O)O)=C(CSc3nc(=O)c(=O)[nH]n3C)CS[C@H]12)c1csc(N)n1 [ceftriaxone]
S. aureus ATCC 29213; [6]
  MIC: 4 µg/mL
S. aureus ATCC 29213
  MIC in the presence of 4X MEC of EPI, VX-710: 4 µg/mL
  MIC in the presence of 4X MEC of EPI, VX-853: 4 µg/mL
  MIC in the presence of 4X MEC of EPI, reserpine: 4 µg/mL

## CC(=O)NC[C@H]1CN(c2ccc(N3CCOCC3)c(F)c2)C(=O)O1 [linezolid]
S. aureus ATCC 29213; [6]
  MIC: 4 µg/mL
S. aureus ATCC 29213
  MIC in the presence of 4X MEC of EPI, VX-710: 4 µg/mL
  MIC in the presence of 4X MEC of EPI, VX-853: 4 µg/mL
  MIC in the presence of 4X MEC of EPI, reserpine: 4 µg/mL

## CN[C@H](CC(C)C)C(=O)N[C@H]1C(=O)N[C@@H](CC(N)=O)C(=O)N[C@H]2C(=O)N[C@H]3C(=O)N[C@H](C(=O)N[C@H](C(=O)O)c4cc(O)cc(O)c4-c4cc3ccc4O)[C@H](O)c3ccc(c(Cl)c3)Oc3cc2cc(c3O[C@@H]2O[C@H](CO)[C@@H](O)[C@H](O)[C@H]2O[C@H]2C[C@](C)(N)[C@H](O)[C@H](C)O2)Oc2ccc(cc2Cl)[C@H]1O [Vancomycin]
[1]; read-out: MIC, No EPI, E. faecalis clinical isolate 1
  MIC: 1 µg/mL
[1]; read-out: MIC, No EPI, E. faecalis clinical isolate 2
  MIC: 4 µg/mL
[1]; read-out: MIC, No EPI, E. faecalis clinical isolate 3
  MIC: > 256 µg/mL
[1]; read-out: MIC, No EPI, E. faecalis clinical isolate 4
  MIC: 1 µg/mL
[1]; read-out: MIC, No EPI, E. faecalis clinical isolate 5
  MIC: 2 µg/mL
[1]; read-out: MIC, No EPI, E. faecalis clinical isolate 6
  MIC: 2 µg/mL
[1]; read-out: MIC, No EPI, E. faecalis clinical isolate 7
  MIC: 1 µg/mL
[1]; read-out: MIC, No EPI, E. faecalis clinical isolate 8
  MIC: 128 µg/mL
[1]; read-out: MIC, No EPI, E. faecalis clinical isolate 9
  MIC: 1 µg/mL
[1]; read-out: MIC, No EPI, E. faecalis clinical isolate 10
  MIC: 2 µg/mL
[1]; read-out: MIC, No EPI, E. faecalis clinical isolate 11
  MIC: 16 µg/mL
[1]; read-out: MIC, No EPI, E. faecalis clinical isolate 12
  MIC: 4 µg/mL
[1]; read-out: MIC, No EPI, E. faecalis clinical isolate 13
  MIC: 2 µg/mL
[1]; read-out: MIC, No EPI, E. faecalis clinical isolate 14
  MIC: 1 µg/mL
[1]; read-out: MIC, No EPI, E. faecalis clinical isolate 15
  MIC: 4 µg/mL
[1]; read-out: MIC, No EPI, E. faecalis clinical isolate 16
  MIC: 0.5 µg/mL
[1]; read-out: MIC, No EPI, E. faecalis clinical isolate 17
  MIC: 4 µg/mL
[1]; read-out: MIC, No EPI, E. faecalis clinical isolate 18
  MIC: > 256 µg/mL
[1]; read-out: MIC, No EPI, E. faecalis clinical isolate 19
  MIC: 2 µg/mL
[1]; read-out: MIC, No EPI, E. faecalis clinical isolate 20
  MIC: 2 µg/mL
[1]; read-out: MIC, No EPI, E. faecalis clinical isolate 21
  MIC: 1 µg/mL
[1]; read-out: MIC, No EPI, E. faecalis clinical isolate 22
  MIC: 1 µg/mL
[1]; read-out: MIC, No EPI, E. faecalis clinical isolate 23
  MIC: 2 µg/mL
[1]; read-out: MIC, No EPI, E. faecalis clinical isolate 24
  MIC: 1 µg/mL
[1]; read-out: MIC, No EPI, E. faecalis clinical isolate 25
  MIC: 1 µg/mL
[1]; read-out: MIC, No EPI, E. faecalis clinical isolate 26
  MIC: > 256 µg/mL

## CC[C@H]1OC(=O)[C@H](C)[C@@H](O[C@H]2C[C@@](C)(OC)[C@@H](O)[C@H](C)O2)[C@H](C)[C@@H](O[C@@H]2O[C@H](C)C[C@H](N(C)C)[C@H]2O)[C@](C)(O)C[C@@H](C)C(=O)[C@H](C)[C@@H](O)[C@]1(C)O [erythromycin]
S. aureus ATCC 29213; [6]
  MIC: 0.25 µg/mL
S. aureus ATCC 29213
  MIC in the presence of 4X MEC of EPI, VX-710: 0.25 µg/mL
  MIC in the presence of 4X MEC of EPI, VX-853: 0.25 µg/mL
  MIC in the presence of 4X MEC of EPI, reserpine: 0.25 µg/mL

## Cc1onc(-c2ccccc2)c1C(=O)N[C@@H]1C(=O)N2[C@@H]1SC(C)(C)[C@@H]2C(=O)O [Oxacillin]
[2]; S. aureus clinical isolate 1
  MIC: 16 µg/mL
[2]; S. aureus clinical isolate 2
  MIC: > 64 µg/mL
[2]; S. aureus clinical isolate 3
  MIC: 32 µg/mL
[2]; S. aureus clinical isolate 4
  MIC: > 64 µg/mL
[2]; S. aureus clinical isolate 5
  MIC: 2 µg/mL
[2]; S. aureus clinical isolate 6
  MIC: 16 µg/mL
[2]; S. aureus clinical isolate 7
  MIC: 2 µg/mL
[2]; S. aureus clinical isolate 8
  MIC: 4 µg/mL
[2]; S. aureus clinical isolate 9
  MIC: 2 µg/mL
[2]; S. aureus clinical isolate 10
  MIC: > 64 µg/mL
[2]; S. aureus clinical isolate 11
  MIC: > 64 µg/mL
[2]; S. aureus clinical isolate 12
  MIC: 2 µg/mL
[2]; S. aureus clinical isolate 13
  MIC: > 64 µg/mL
[2]; S. aureus clinical isolate 14
  MIC: > 64 µg/mL
[2]; S. aureus clinical isolate 15
  MIC: > 64 µg/mL

## [Br-].c1ccc([P+](c2ccccc2)(c2ccccc2)c2ccccc2)cc1 [tetraphenylphosphonium bromide]
S. aureus ATCC 29213; ATCC29213, read-out: MIC, No EPI, antibacterial agent alone
  MIC: 16 µg/mL
S. aureus ATCC 29213
  MIC in the presence of 4X MEC of EPI, VX-710: 4 µg/mL
  MIC in the presence of 4X MEC of EPI, VX-853: 8 µg/mL
  MIC in the presence of 4X MEC of EPI, reserpine: 8 µg/mL

## O=C(N[C@H](CO)[C@H](O)c1ccc([N+](=O)[O-])cc1)C(Cl)Cl [chloramphenicol]
S. aureus ATCC 29213; [6]
  MIC: 8 µg/mL
S. aureus ATCC 29213
  MIC in the presence of 4X MEC of EPI, VX-710: 8 µg/mL
  MIC in the presence of 4X MEC of EPI, VX-853: 8 µg/mL
  MIC in the presence of 4X MEC of EPI, reserpine: 8 µg/mL

## CO[C@@H]1[C@@H](OC(N)=O)[C@@H](O)[C@H](Oc2ccc3c(O)c(NC(=O)c4ccc(O)c(CC=C(C)C)c4)c(=O)oc3c2C)OC1(C)C [novobiocin]
S. aureus ATCC 29213; [6]
  MIC: 0.125 µg/mL
S. aureus ATCC 29213
  MIC in the presence of 4X MEC of EPI, VX-710: 0.063 µg/mL
  MIC in the presence of 4X MEC of EPI, VX-853: 0.063 µg/mL
  MIC in the presence of 4X MEC of EPI, reserpine: 0.063 µg/mL

## C[C@H]1COc2c(N3CCN(C)CC3)c(F)cc3c(=O)c(C(=O)O)cn1c23 [levofloxacin]
S. aureus ATCC 29213; [6]
  MIC: 0.25 µg/mL
S. aureus ATCC 29213
  MIC in the presence of 4X MEC of EPI, VX-710: 0.125 µg/mL
  MIC in the presence of 4X MEC of EPI, VX-853: 0.125 µg/mL
  MIC in the presence of 4X MEC of EPI, reserpine: 0.125 µg/mL
S. aureus SA-8325-4
  MIC: 0.25 µg/mL
[3]; Staphylococcus aureus, read-out: MIC of antibacterial agent, EPI none
  MIC: 0.125 µg/mL

## CC[C@H]1OC(=O)[C@H](C)[C@@H](O[C@H]2C[C@@](C)(OC)[C@@H](O)[C@H](C)O2)[C@H](C)[C@@H](O[C@@H]2O[C@H](C)C[C@H](N(C)C)[C@H]2O)[C@](C)(O)C[C@@H](C)CN(C)[C@H](C)[C@@H](O)[C@]1(C)O [azithromycin]
S. aureus ATCC 29213; [6]
  MIC: 1 µg/mL
S. aureus ATCC 29213
  MIC in the presence of 4X MEC of EPI, VX-710: 1 µg/mL
  MIC in the presence of 4X MEC of EPI, VX-853: 1 µg/mL
  MIC in the presence of 4X MEC of EPI, reserpine: 1 µg/mL

## gentamicin [reference compound]
S. aureus ATCC 29213; S. aureus ATCC 29213, no EPI
  MIC of antibacterial agent, EPI none: 0.5 µg/mL
S. aureus ATCC 29213
  MIC in the presence of 4X MEC of EPI, VX-853: 0.25 µg/mL
S. aureus ATCC 29213; antibacterial agent alone
  MIC, No EPI: 0.5 µg/mL
[4]
  MIC of antibacterial agent, EPI none: 0.063 µg/mL
[5]
  MIC of antibacterial agent, EPI none: 0.5 µg/mL
[3]; S. aureus SA-1199, no EPI
  MIC of antibacterial agent, EPI none: 0.5 µg/mL

— US20090291964A1, “Potentiators of Antibacterial Activity” (priority 2003, published 2009)
